Measured values from patent US7807673B2, “2-pyrimidinyl pyrazolopyridine ErbB kinase inhibitors” (GlaxoSmithKline LLC, priority 2005, dated 2010).
pIC50: −log10 of the molar value.

What was measured:
[1] = biological target: T1, ErbB2 or EGFR; test: ErbB enzyme substrate phosphorylation assay (HTRF), Method B (enzyme pre-incubated with compound 1 hour); format: biochemical; settings: Table 1, enzyme Method B: enzyme mix incubated with compound 1 hour at 20° C., reaction started with substrate mix; class over ErbB2 or EGFR
T1 construct: enzymes purified from a baculovirus expression system
Method: Compounds of the present invention were tested for EGFR, ErbB-2, and ErbB-4 protein tyrosine kinase inhibitory activity in substrate phosphorylation assays using enzymes purified from a baculovirus expression system. Reagent production was conducted essentially as described in Brignola, P. S., et al, (2002) J. Biol. Chem. 277(2): 1576-1585.
The method measures the ability of the isolated enzyme to catalyse the transfer of the gamma-phosphate from ATP onto the tyrosine residue of a biotinylated synthetic peptide referenced “Peptide C” in Brignola, P. S., et al, (2002) J. Biol. Chem. 277(2):1576-1585. The extent of tyrosine phosphorylation was measured using an anti-phosphotyrosine antibody, and quantified by homogenous time-resolved fluorescence (HTRF).
Reactions were performed in black 384-well polystyrene flat-bottom plates in a final volume of 20 μl. Assays were performed by adding 10 μl of each of the following solutions, substrate Mix and enzyme mix: The Substrate mix contained 100 mM 3-[N-morpholino]propanesulfonic acid (MOPS) (pH 7.5), 2 mM MnCl2, 20 μM ATP, 0.01% Tween-20, 0.1 mg/mL (BSA), 0.8 uM peptide substrate, and 1 mM dithiothreitol. The enzyme mix contained 100 mM MOPS (pH7.5); 0.01% Tween-20; 0.1 mg/mL BSA, and either 0.8 nM EGFR, 10 nM ErbB2, or 1 nM ErbB4
During the course of these studies, two separate methods have been used to measure the potency of compounds. In Method A, the substrate mix was added to the compound plates first, then the reaction was started by adding the enzyme mix. In Method B, the enzyme mix was added to the compound plates and the plates were incubated at 20° C. for 1 hour. The reactions were then started by adding the substrate mix.
After initiating the reaction with either method describe above, the reactions were allowed to proceed for 90 minutes at 20° C. The reactions were then terminated by the addition of 20 μl 100 mM EDTA to each well. 40 μl/well of HTRF detection mix were added to the assay plates. The final concentrations of the detection reagents were: 100 mM HEPES (pH7.5), 0.1 mg/mL BSA, 15 nM streptavidin-labeled allophycocyanin (PerkinElmer), and 1 nM europium-labeled anti-phosphotyrosine antibody (PerkinElmer). Assay plates were left unsealed and were counted in a Wallac Multilabel Counter 1420 (PerkinElmer).
Compounds under analysis were dissolved in Me2SO to 1.0 mM and serially diluted 1 to 3 with Me2SO through twelve dilutions. 1 μl of each concentration was transferred to the corresponding well of an assay plate. This creates a final compound concentration range from 0.00027 to 47.6 μM.
The data for dose responses were plotted as % Inhibition calculated with the data reduction formula 100*(1−(U1−C2)/(C1−C2)) versus concentration of compound where U is the unknown value, C1 is the average control value obtained for 4.76% DMSO, and C2 is the average control value obtained for 0.035 M EDTA. Data were fitted with a curve described by: y=((Vmax*x)/(K+x))+Y2 where Vmax is the upper asymptote, Y2 is the Y intercept, and K is the IC50. The results for each compound were recorded as pIC50s, calculated as follows: pIC50=−Log 10(K)

[2] = system: BT474 and HN5 tumor cell lines; test: Celltiter Glo growth inhibition assay (cellular Method B); format: cell-based; settings: Homo sapiens, BT-474, 72 h; Table 2, Method B Celltiter Glo, 3 days; class over BT474 and HN5;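 further: class counts the more potent of the two cell lines (BT474 or HN5)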
Method: (§1) Human breast tumor cells (BT474) were cultured in RPMI, (Invitrogen, 22400) containing 10% fetal bovine serum (FBS). Human head and neck tumor cells (HN5) were cultured in low glucose DMEM (Invitrogen, 12320) containing 10% FBS. Human colon tumor cells (Colo205) were cultured in DMEM (Invitrogen, 10564) containing 10% FBS. All cell lines were maintained at 37° C. in a humidified 5% CO2, 95% air incubator. Cells were harvested using trypsin/EDTA, counted using a haemocytometer, and plated in 30 microliters of the appropriate media described above, at the following densities, in a half area, black-walled, 96-well tissue culture plate (Corning 3882): BT474 3,000 cells/well, HN5 500 cells/well and Colo205 cells, 3,000 cells/well. The next day, compounds were diluted in DMEM containing 100 mg/ml gentamicin, from 10 mM stock solutions in DMSO. 30 microliters/well of these dilutions were added to the 30 microliters/well of media currently on the cell plates. Medium containing 0.6% DMSO was added to control wells. The final concentration of DMSO in all wells was 0.3%. Cells were incubated at 37° C., 5% CO2 for 3 days. Cell biomass was estimated using Celltiter Glo (Promega G7571). Briefly, plates were removed from the incubator and allowed to equilibrate to rt for 30 minutes. 60 microliters of Celltiter Glo reagent were added to each well of the treated cells and plates were shaken on an orbital plate shaker for 2 min. Plates were incubated without shaking for 30 more min and read in a luminometer with an integration time of 0.5 seconds per well. Percent inhibition of cell growth was calculated relative to vehicle treated control wells. Concentration of compound that inhibits 50% of vehicle control cell growth (IC50) was interpolated using nonlinear regression (Levenberg-Marquardt) and the equation, y=Vmax*(1−(x/(K+x)))+Y2, where “K” was equal to the IC50.

[3] = system: Colo205 tumor cell lines; test: as above; format: cell-based; settings: Homo sapiens, COLO 205, 72 h, Table 3, Method B Celltiter Glo, 3 days
Method: as §1

| SMILES | Activity (Method) [1] | pIC50 [2] | pIC50 [3] |
| --- | --- | --- | --- |
| CN(C)Cc1cccc(Nc2nccc(-c3c(-c4cccc(NC(=O)Cc5cccs5)c4)nn4ccccc34)n2)c1 [Example 7, N-(3-{3-[2-({3-[(Dimethylamino)methyl]phenyl}amino)-4-pyrimidinyl]pyrazolo[1,5-a]pyridin-2-yl}phenyl)-2-(2-thienyl)acetamide] | +++ (B) (at least one pIC50 measurement of greater than 7 against either ErbB2 or EGFR) | 6.00 to 7.00 | 6.00 to 7.00 |
| CN1CCc2ccc(Nc3nccc(-c4c(-c5cccc(NC(=O)Cc6cccs6)c5)nn5ccccc45)n3)cc2C1 [Example 8] | +++ (B) (at least one pIC50 measurement of greater than 7 against either ErbB2 or EGFR) | – | – |
| Cc1ncoc1-c1cccc(Nc2nccc(-c3c(-c4cccc(NC(=O)Cc5cccs5)c4)nn4ccccc34)n2)c1 [Example 52, N-{3-[3-(2-{[3-(4-methyl-1,3-oxazol-5-yl)phenyl]amino}pyrimidin-4-yl)pyrazolo[1,5-a]pyridin-2-yl]phenyl}-2-(2-thienyl)acetamide] | – | 6.00 to 7.00 | 6.00 to 7.00 |
| Cc1c(Nc2nccc(-c3c(-c4ccc(F)c(NC(=O)Cc5cccs5)c4)nn4ccccc34)n2)cccc1OCCN(C)C [Example 60, N-[5-(3-{2-[(3-{[2-(Dimethylamino)ethyl]oxy}-2-methylphenyl)amino]-4-pyrimidinyl}pyrazolo[1,5-a]pyridin-2-yl)-2-fluorophenyl]-2-(2-thienyl)acetamide] | ++ (B) (at least one pIC50 measurement greater than 6 against either ErbB2 or EGFR but no measurement greater than pIC50 of 7) | – | – |
| CN1CCc2ccc(Nc3nccc(-c4c(-c5ccc(F)c(NC(=O)Cc6cccs6)c5)nn5ccccc45)n3)cc2C1 [Example 63, N-[2-Fluoro-5-(3-{2-[(2-methyl-1,2,3,4-tetrahydro-7-isoquinolinyl)amino]-4-pyrimidinyl}pyrazolo[1,5-a]pyridin-2-yl)phenyl]-2-(2-thienyl)acetamide] | +++ (B) (at least one pIC50 measurement of greater than 7 against either ErbB2 or EGFR) | – | – |
| COc1ccc(-c2nn3ccccc3c2-c2ccnc(Nc3cccc(OCCN(C)C)c3C)n2)cc1NC(=O)Cc1cccs1 [Example 64, N-[5-(3-{2-[(3-{[2-(Dimethylamino)ethyl]oxy}-2-methylphenyl)amino]-4-pyrimidinyl}pyrazolo[1,5-a]pyridin-2-yl)-2-(methyloxy)phenyl]-2-(2-thienyl)acetamide] | + (B) (no pIC50 measurement greater than 6 against either ErbB2 or EGFR) | – | – |
| COc1ccc(-c2nn3ccccc3c2-c2ccnc(Nc3cccc(OCCN(C)C)c3)n2)cc1NC(=O)Cc1cccs1 [Example 65, N-[5-(3-{2-[(3-{[2-(Dimethylamino)ethyl]oxy}phenyl)amino]-4-pyrimidinyl}pyrazolo[1,5-a]pyridin-2-yl)-2-(methyloxy)phenyl]-2-(2-thienyl)acetamide] | + (B) (no pIC50 measurement greater than 6 against either ErbB2 or EGFR) | – | – |
| COc1ccc(-c2nn3ccccc3c2-c2ccnc(Nc3cc(OCCN(C)C)ccc3C)n2)cc1NC(=O)Cc1cccs1 [Example 66, N-[5-(3-{2-[(5-{[2-(Dimethylamino)ethyl]oxy}-2-methylphenyl)amino]-4-pyrimidinyl}pyrazolo[1,5-a]pyridin-2-yl)-2-(methyloxy)phenyl]-2-(2-thienyl)acetamide] | + (B) (no pIC50 measurement greater than 6 against either ErbB2 or EGFR) | – | – |
| COc1ccc2c(-c3ccnc(Nc4cccc(OCCN(C)C)c4)n3)c(-c3cccc(NC(=O)C4(c5ccccc5)CC4)c3)nn2c1 [Example 67, N-{3-[3-{2-[(3-{[2-(Dimethylamino)ethyl]oxy}phenyl)amino]-4-pyrimidinyl}-6-(methyloxy)pyrazolo[1,5-a]pyridin-2-yl]phenyl}-1-phenylcyclopropanecarboxamide] | ++ (B) (at least one pIC50 measurement greater than 6 against either ErbB2 or EGFR but no measurement greater than pIC50 of 7) | – | – |
| COc1ccc2c(-c3ccnc(Nc4cccc(OCCN(C)C)c4)n3)c(-c3cccc(NC(=O)/C=C/c4ccccc4)c3)nn2c1 [Example 68, (2E)-N-{3-[3-{2-[(3-{[2-(Dimethylamino)ethyl]oxy}phenyl)amino]-4-pyrimidinyl}-6-(methyloxy)pyrazolo[1,5-a]pyridin-2-yl]phenyl}-3-phenyl-propenamide] | +++ (B) (at least one pIC50 measurement of greater than 7 against either ErbB2 or EGFR) | – | – |
| COc1ccc2c(-c3ccnc(Nc4cccc(OCCN(C)C)c4)n3)c(-c3cccc(NC(=O)NCc4ccc(F)cc4)c3)nn2c1 [Example 70, N-{3-[3-{2-[(3-{[2-(Dimethylamino)ethyl]oxy}phenyl)amino]-4-pyrimidinyl}-6-(methyloxy)pyrazolo[1,5-a]pyridin-2-yl]phenyl}-N-[(4-fluorophenyl)methyl]urea] | +++ (B) (at least one pIC50 measurement of greater than 7 against either ErbB2 or EGFR) | – | – |
| Cc1ccc2c(-c3ccnc(Nc4cccc(CN5CCCC5)c4)n3)c(-c3cccc(NC(=O)Cc4cccs4)c3)nn2c1 [Example 71, N-{3-[6-Methyl-3-(2-{[3-(1-pyrrolidinylmethyl)phenyl]amino}-4-pyrimidinyl)pyrazolo[1,5-a]pyridin-2-yl]-phenyl}-2-(2-thienyl)acetamide] | +++ (B) (at least one pIC50 measurement of greater than 7 against either ErbB2 or EGFR) | – | – |
| Cc1ccc2c(-c3ccnc(Nc4cccc(OCCN(C)C)c4)n3)c(-c3cccc(NC(=O)Cc4cccs4)c3)nn2c1 [Example 72, N-[3-(3-{2-[(3-{[2-(Dimethylamino)ethyl]oxy}phenyl)amino]-4-pyrimidinyl}-6-methylpyrazolo[1,5-a]pyridin-2-yl)phenyl]-2-(2-thienyl)acetamide] | +++ (B) (at least one pIC50 measurement of greater than 7 against either ErbB2 or EGFR) | – | – |
| CC(=O)N1CCN(c2ccc(Nc3nccc(-c4c(-c5cccc(NC(=O)Cc6cccs6)c5)nn5cc(C)ccc45)n3)cc2)CC1 [Example 73, N-{3-[3-(2-{[4-(4-Acetyl-1-piperazinyl)phenyl]amino}-4-pyrimidinyl)-6-methylpyrazolo[1,5-a]pyridin-2-yl]phenyl}-2-(2-thienyl)acetamide] | +++ (B) (at least one pIC50 measurement of greater than 7 against either ErbB2 or EGFR) | – | – |
